Common to all, as to format: cell-based, mouse
In series [1] the test system is MEFs undergoing nuclear reprogramming. The series is described as follows: Reprogramming efficiency by FACS analysis of SSEA-1 expression. The note with it: vehicle 27.8±3.1, mean±SEM, n=3. From the text: (§1) Mouse embryonic fibroblasts (MEFs) were transduced with HIV-based viral vectors encoding OCT3/4, SOX2, and KLF4 either in the presence (4F) or absence of c-MYC (3F) to produce iPS clones that met pluripotent criteria including expression of stem cell markers, embryoid body differentiation, teratoma formation, diploid aggregation, and contribution to organogenesis (Martinez-Fernandez et al., Circ. Res., 105:648-656 (2009); Nelson et al., Clin. Transl. Sci., 2:118-126 (2009); and Nelson et al., Circulation, 120:408-416 (2009)). Alternatively, iPS cells were derived with a viPS (Open Biosystems) kit. iPS cells were induced and maintained in ES Cell qualified DMEM supplemented with 15% FBS, 25 mM glucose, 2 mM Glutamax (Invitrogen), and 1 mM sodium pyruvate. In reprogramming experiments, media was supplemented with 0.25 or 1.25 mM 2DG (Sigma), 100 μM BrPA (Sigma) or 5 mM DCA (Sigma). Reprogramming efficiency was quantified using an alkaline phosphatase staining kit (Stemgent) or FACS analysis of SSEA-1 expression (Millipore) on a LSR II flow cytometer.
(In general: Flow cytometry measures light scatter and fluorescence of single cells or particles in a stream.)

Series [2] shares this test system. Put plainly: Reprogramming efficiency by alkaline phosphatase staining. Conditions: 2-DG during reprogramming (media supplemented with 0.25 or 1.25 mM 2DG).
From the text: as §1

Series [3] deals with parental MEF population. The series is described as follows: Growth of the parental MEF population. The note with it: 1.25 mM 2-DG, 100 μM BrPA, 5 mM DCA.
Series [4] relates to MEFs. Put plainly: 1H NMR metabolomic footprinting of extracellular metabolites of treated MEFs. Conditions: control experiments; 1.25 mM 2-DG, 100 μM BrPA, 5 mM DCA versus vehicle; n=3. The protocol:
For footprinting of extracellular metabolites, 540 μL of media collected following 24 hours of culture was added to 60 μL of D2O (Sigma) containing 5 mM sodium 3-(trimethylsilyl)propionate-2,2,3,3-d4 (TSP) (Sigma) for chemical shift reference and 81.84 mM formate (Sigma) for peak quantification reference as described elsewhere (Turner et al., Stem Cells, 26:1547-1555 (2008)). Briefly, MEFs, iPS cells, and R1ESC were maintained in DMEM containing 15% FBS, pyruvate, L-glutamine, nonessential amino acids, 2-mercaptoethanol, and LIF in 6 well plates at 37° C. in a humidified incubator with 95% air and 5% CO2 (Martinez-Fernandez et al., Circ Res., 25; 105(7):648-56 (2009)). […]
For intracellular metabolite fingerprinting, neutralized perchloric acid extracts were concentrated with a SpeedVac and suspended in 600 μL of 100 mM phosphate buffer (pH 7.0) in D2O (Sigma) containing 0.5 mM TSP as described elsewhere (Beckonert et al., Nat. Protoc., 2:2692-2703 (2007)). […] Following Fourier transformation, spectra were autophased with metabonomic phase correction, baseline corrected using a Bernstein polynomial fit and referenced to the TSP peak (0.00 ppm) using MestReNova 5.3.2 (MestRelab Research). p-toluenesulfonic acid (Sigma) was utilized as a reference standard to calibrate the formate concentration for quantitative analysis (Shao et al., J. Chromatogr. A, 1138:305-308 (2007)). […]

Regarding `O=CC[C@@H](O)[C@H](O)[C@H](O)CO` [2-DG, 2-deoxyglucose], the “% SSEA1 positive cells (reprogramming efficiency)” value (“% SSEA1 positive cells” below) in series [1] (1.25 mM 2-DG during reprogramming) stood at 0.9±0.3 % SSEA1 positive cells. Also, the “Induction of the pluripotent marker alkaline phosphatase” value in series [2] is on record as “blunted induction of the pluripotent marker alkaline phosphatase”. In addition, the “Cell growth of parental MEF population” value in series [3] is “without impairing cell growth”. For the same compound, in series [4], the “Extracellular metabolite profile of treated MEFs” value is “consistent with inhibition of glycolysis and stimulation of oxidative metabolism”.
In the case of `O=C(O)C(=O)CBr` [BrPA, 3-bromopyruvic acid], the “% SSEA1 positive cells” value in series [1] (100 μM BrPA during reprogramming) is reported as 19.8±1.0 % SSEA1 positive cells. Moreover, the “Cell growth of parental MEF population” value in series [3] is reported as “without impairing cell growth”. The “Extracellular metabolite profile of treated MEFs” value in series [4] was “consistent with inhibition of glycolysis and stimulation of oxidative metabolism”.
With `O=C(O)C(Cl)Cl` [DCA, dichloroacetate], the “% SSEA1 positive cells” value in series [1] (5 mM DCA during reprogramming) turned out to be 17.3±1.5 % SSEA1 positive cells. For the same compound, the “Cell growth of parental MEF population” value in series [3] is recorded as “without impairing cell growth”.
